Results as given in PubChem BioAssay AID248 (DTP/NCI, 2004).
Where “and” joins values, the source holds several entries; their conditions need not be identical. Equal values may be shown once. Toxic doses and inconclusive results are not listed.

System: L1210 leukemia ip in BDF1 mice, survival T/C
Experiment: NCI In Vivo Anticancer Drug Screen. Data for tumor model L1210 Leukemia (intraperitoneal) in B6D2F1 (BDF1) mice
Details: endpoint: mean survival time, higher = longer survival
In short: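 Mice bearing the transplanted tumor received compound or vehicle. Survival of the treated group was divided by that of the vehicle-treated control group to give the ratio.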

O=C(Nc1cccc(C2=NCCCN2)c1)Nc1ccc(NC(=O)Nc2cccc(C3=NCCCN3)c2)c(Cl)c1 was tested, and the T/C (dose: 0.47 mg/kg/injection, schedule: Q01DX Z (ip), vehicle: carboxymethylcellulose (CMC)) was 121 % of control, the T/C (dose: 0.93 mg/kg/injection, schedule: Q01DX Z (ip), vehicle: carboxymethylcellulose (CMC)) was 118 % of control and the T/C (dose: 3.75 mg/kg/injection, schedule: Q01DX Z (ip), vehicle: carboxymethylcellulose (CMC)) was 156 % of control and 204 % of control. The T/C (dose: 7.5 mg/kg/injection, schedule: Q01DX Z (ip), vehicle: carboxymethylcellulose (CMC)) was 229 % of control, the T/C (dose: 18.0 mg/kg/injection, schedule: Q01DX001 (ip), vehicle: carboxymethylcellulose (CMC)) was 152 % of control and the T/C (dose: 25.0 mg/kg/injection, schedule: Q01DX Z (oral), vehicle: carboxymethylcellulose (CMC)) was 101 % of control. The T/C (dose: 26.0 mg/kg/injection, schedule: Q01DX001 (ip), vehicle: carboxymethylcellulose (CMC)) was 150 % of control, the T/C (dose: 26.0 mg/kg/injection, schedule: Q01DX001 (ip), vehicle: other) was 154 % of control and the T/C (dose: 40.0 mg/kg/injection, schedule: Q01DX001 (ip), vehicle: carboxymethylcellulose (CMC)) was 150 % of control and 162 % of control. For the same compound, the T/C (dose: 40.0 mg/kg/injection, schedule: Q01DX001 (ip), vehicle: other) was 171 % of control, the T/C (dose: 50.0 mg/kg/injection, schedule: Q01DX Z (oral), vehicle: carboxymethylcellulose (CMC)) was 98 % of control and the T/C (dose: 60.0 mg/kg/injection, schedule: Q01DX001 (ip), vehicle: carboxymethylcellulose (CMC)) was 173 % of control and 200 % of control. For the same compound, the T/C (dose: 60.0 mg/kg/injection, schedule: Q01DX001 (ip), vehicle: other) was 185 % of control, the T/C (dose: 80.0 mg/kg/injection, schedule: Q01DX001 (ip), vehicle: carboxymethylcellulose (CMC)) was 236 % of control and the T/C (dose: 100.0 mg/kg/injection, schedule: Q01DX Z (oral), vehicle: carboxymethylcellulose (CMC)) was 104 % of control. For the same compound, the T/C (dose: 200.0 mg/kg/injection, schedule: Q01DX Z (oral), vehicle: carboxymethylcellulose (CMC)) was 101 % of control.
For Nc1nccc(NC(c2ccccc2)c2ccccc2)c1N, the T/C (dose: 12.5 mg/kg/injection, schedule: Q01DX001 (ip), vehicle: other) was 96 % of control, the T/C (dose: 12.5 mg/kg/injection, schedule: Q01DX009 (ip), vehicle: DMSO) was 95 % of control and the T/C (dose: 12.5 mg/kg/injection, schedule: Q04DX003 (ip), vehicle: other) was 96 % of control. The T/C (dose: 25.0 mg/kg/injection, schedule: Q01DX001 (ip), vehicle: other) was 96 % of control, the T/C (dose: 25.0 mg/kg/injection, schedule: Q04DX003 (ip), vehicle: other) was 96 % of control and the T/C (dose: 50.0 mg/kg/injection, schedule: Q01DX001 (ip), vehicle: other) was 98 % of control. The T/C (dose: 50.0 mg/kg/injection, schedule: Q04DX003 (ip), vehicle: other) was 89 % of control.
In the case of CC(CCC1CCCCC1)c1ccccc1 (stereo unspecified) (tested in a mixture with another compound), the T/C (dose: 100.0 mg/kg/injection, schedule: Q04DX003 (ip), vehicle: saline with Tween-80) is reported as 93 % of control, the T/C (dose: 200.0 mg/kg/injection, schedule: Q04DX003 (ip), vehicle: saline with Tween-80) is reported as 96 % of control and the T/C (dose: 400.0 mg/kg/injection, schedule: Q04DX003 (ip), vehicle: saline with Tween-80) is reported as 93 % of control.
Cc1ccccc1NC(=O)Nc1ccccc1F was tested, and the T/C (dose: 100.0 mg/kg/injection, schedule: Q01DX009 (ip), vehicle: Klucel (hydroxypropylcellulose) (HPC)) was 99 % of control, the T/C (dose: 100.0 mg/kg/injection, schedule: Q04DX003 (ip), vehicle: Klucel (hydroxypropylcellulose) (HPC)) was 96 % of control and the T/C (dose: 200.0 mg/kg/injection, schedule: Q01DX009 (ip), vehicle: Klucel (hydroxypropylcellulose) (HPC)) was 99 % of control. For the same compound, the T/C (dose: 200.0 mg/kg/injection, schedule: Q04DX003 (ip), vehicle: Klucel (hydroxypropylcellulose) (HPC)) was 103 % of control, the T/C (dose: 400.0 mg/kg/injection, schedule: Q01DX009 (ip), vehicle: Klucel (hydroxypropylcellulose) (HPC)) was 104 % of control and the T/C (dose: 400.0 mg/kg/injection, schedule: Q04DX003 (ip), vehicle: Klucel (hydroxypropylcellulose) (HPC)) was 110 % of control.
CC(=O)OC1C=COC(C)C1OC(C)=O (stereo unspecified) was tested, and the T/C (dose: 50.0 mg/kg/injection, schedule: Q01DX001 (ip), vehicle: saline) was 105 % of control, the T/C (dose: 100.0 mg/kg/injection, schedule: Q01DX001 (ip), vehicle: saline) was 97 % of control and the T/C (dose: 100.0 mg/kg/injection, schedule: Q01DX009 (ip), vehicle: saline) was 109 % of control. For the same compound, the T/C (dose: 100.0 mg/kg/injection, schedule: Q04DX003 (ip), vehicle: saline) was 102 % of control, the T/C (dose: 200.0 mg/kg/injection, schedule: Q01DX001 (ip), vehicle: saline) was 100 % of control and the T/C (dose: 200.0 mg/kg/injection, schedule: Q01DX009 (ip), vehicle: saline) was 93 % of control. The T/C (dose: 200.0 mg/kg/injection, schedule: Q04DX003 (ip), vehicle: saline) was 91 % of control, the T/C (dose: 400.0 mg/kg/injection, schedule: Q01DX001 (ip), vehicle: saline) was 105 % of control and the T/C (dose: 400.0 mg/kg/injection, schedule: Q01DX009 (ip), vehicle: saline) was 102 % of control. For the same compound, the T/C (dose: 400.0 mg/kg/injection, schedule: Q04DX003 (ip), vehicle: saline) was 96 % of control.
In the case of COC(=O)/C=C(\C)Nc1cccc([N+](=O)[O-])c1, the T/C (dose: 100.0 mg/kg/injection, schedule: Q01DX001 (ip), vehicle: other) is reported as 94 % of control.
In the case of COc1ccc(C)cc1NC(=O)NNS(=O)(=O)c1ccc(C)cc1, the T/C (dose: 50.0 mg/kg/injection, schedule: Q01DX009 (ip), vehicle: saline with Tween-80) is reported as 93 % of control, the T/C (dose: 100.0 mg/kg/injection, schedule: Q01DX009 (ip), vehicle: saline with Tween-80) is reported as 93 % of control and the T/C (dose: 200.0 mg/kg/injection, schedule: Q01DX009 (ip), vehicle: saline with Tween-80) is reported as 93 % of control.
